One assay deals with HEK293-EV cells. Briefly: MTT cell viability assay, HEK293-EV. The conditions noted are these: Homo sapiens, 48 h, first-phase EC50 where biphasic. In kind it is cell-based, human. The method, then: (§1) Transfected-HEK293, MOLT-4, and L1210 cells were seeded into 24-well plates at a density of 1.1x10^5 cells per well in complete culture medium. […] Medium containing no cells was used to determine spontaneous MTT reduction (background). In transfected-HEK293 cells, media was removed via a vacuum-powered aspirator and replaced with 150 μL of Dulbecco’s phosphate buffered saline (DPBS—137 mM NaCl, 2.7 mM KCl, 6.3 mM Na2HPO4, 1.5 mM KH2PO4, 0.5 mM MgCl2, 0.9 mM CaCl2, pH 7.4) containing MTT (1 mg/mL) for 90 minutes at 37°C. In MOLT-4 and L1210, cell suspension was transferred to 1.5 mL microcentrifuge tubes and centrifuged for 10 minutes at 3000 rcf. Following centrifugation, media was removed via gentle pipetting and replaced with 150 μL of DPBS containing MTT (1 mg/mL) for 90 minutes at 37°C. Microcentrifuge tubes were centrifuged again for 15 minutes at 23,500 rcf, and then DPBS containing MTT was removed via a vacuum-powered aspirator. The resultant formazan crystals were solubilized in 500 μL of DMSO and transferred to a 96-well plate in 200 μL duplicates. Absorbance was measured at 570 nm, in a SpectraMax® i3x Multi-Mode Detection Platform (Molecular Devices, San Jose, CA). After background subtraction, % cell viability was calculated as the ratio of absorbance in the presence of test compound to that measured with vehicle alone (X 100).
On the technique in general: Tetrazolium assays rely on reduction of a dye to a coloured formazan, in cell work by metabolically active cells.

Another assay relates to MOLT-4 cells. Briefly: MTT cell viability assay, MOLT-4. Format: cell-based, human. To be noted: for EC50: Homo sapiens, MOLT-4, 48 h, read-out: first-phase EC50 cell viability. The procedure:
as §1

For orientation: EC50 means the concentration giving half of the maximal effect.

The structures appear in SMILES notation. Like-named read-outs stand apart in the source and are kept apart here.

Consider `Sc1ncnc2nc[nH]c12` [6-MP, 6-Mercaptopurine], for which the 50% effective concentration (EC50) in the assay with HEK293-EV cells came out at 18800 ± 510 nM; with MOLT-4 cells (MTT, biphasic curve (Fig 10A)) it was 700 ± 200 nM; in the assay on MOLT-4 cells (in absence of DY, solvent DMSO present), 500 ± 100 nM. Besides, the “increase in 6-MP sensitivity on co-treatment with DY” value in the assay with MOLT-4 cells (MOLT-4, 6-MP + DY vs 6-MP + solvent) amounted to 2 fold.

The values above are taken from PMC11449324, “Functional comparison of human and murine equilibrative nucleobase transporter 1” (PLOS ONE, 2024).
